Assay results from patent publication US7521192B2, “EDG: modulators of lymphocyte activation and migration” (Rigel Pharmaceuticals, Inc., priority 2001, dated 2009).
Entries after “also recorded” stand apart in the source; their conditions may differ.

Columns and labels:
BJAB cells = experiment: anti-BCR-induced CD69 upregulation in naive BJAB cells; type: cell-based
EDG-1 [1] = biological target: T1, EDG-1 (Homo sapiens, UniProt P21453); experiment: anti-BCR induced CD69 upregulation in BJAB cells expressing TIG-EDG-1 constructs; type: cell-based
T1 sequence (P21453 whole entry): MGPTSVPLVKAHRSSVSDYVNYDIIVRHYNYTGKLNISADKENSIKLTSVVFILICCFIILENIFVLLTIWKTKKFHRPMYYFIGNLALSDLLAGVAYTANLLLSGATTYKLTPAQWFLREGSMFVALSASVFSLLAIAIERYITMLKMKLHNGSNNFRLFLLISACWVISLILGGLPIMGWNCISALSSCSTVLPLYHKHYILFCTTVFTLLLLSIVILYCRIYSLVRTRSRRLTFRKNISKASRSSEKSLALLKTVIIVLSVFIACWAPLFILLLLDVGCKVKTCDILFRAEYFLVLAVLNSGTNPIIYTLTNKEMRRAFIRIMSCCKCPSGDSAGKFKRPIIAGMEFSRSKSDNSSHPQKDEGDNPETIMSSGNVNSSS

EDG-1 [2] = experiment: as above; type: cell-based
Jurkat cells [3] = experiment: SPP-induced migration assay in Jurkat cells; type: cell-based, human
Source text: (§1) “Lymphocyte migration” refers to migration of B and T lymphocytes to and from primary and secondary lymphoid organs (e.g., bone marrow, thymus, lymph nodes, spleen, Peyer's patch, and tonsils), the periphery, and non-lymphoid tissues via the blood stream, lymphatic vessels, and by penetration of capillary walls (see, e.g., Paul, Immunology (3rd ed., 1993) (Chapters 4 and 6)). […] SPP and LPA are present in serum and are produced by a number of cells, including platelets and fibroblasts. Ligand-induced lymphocyte migration can be measured using the assay described in FIG. 33A, in which lymphocytes migrate toward the ligand from an upper to a lower chamber. The sphingolipid analog compound 2-amino-2(2-[4-octylphenyl]ethyl)-1,3-propanediol hydrochloride and analogs thereof inhibit such migration. The C-terminus of EDG-1 appears to be involved in migration. Such domains (e.g., the cytoplasmic tail of EDG-1) can be used in high throughput binding assays for compounds that modulate lymphocyte migration.
(§2) As described above, in one embodiment, lymphocyte activation is measured by contacting T cells comprising an EDG target with a potential modulator and activating the cells with an anti-TCR antibody. […] In another embodiment, lymphocyte migration is measured by observing T cell migration from an upper to a lower chamber containing an EDG ligand such as SPP.

Jurkat cells [4] = experiment: anti-TCR-induced CD69 upregulation in naive Jurkat cells; type: cell-based, human
Description: Stimulation: For CD69 upregulation experiments, tTA-Jurkat cells were split to 2.5×10^5 cells/ml 24 hours prior to stimulation. Cells were spun and resuspended at 5×10^5 cells/ml in fresh complete RPMI medium in the presence of 100 ng/ml […] (anti-Jurkat clonotypic TCR) or 5 ng/ml PMA hybridoma supernatant for 20-26 hours at 37° C., and then assayed for surface CD69 expression. Cell surface marker analysis: Jurkat-N cells were stained with an APC-conjugated mouse monoclonal anti-human CD69 antibody (Caltag) at 4° C. for 20 minutes and analyzed using a Facscalibur instrument (Becton Dickinson) with Cellquest software. Cell sorts were performed on a MoFlo (Cytomation).

primary T cell = experiment: SPP-induced primary T cell migration; type: cell-based; settings: primary T cells
Source text: as §1, §2

EDG-1 [5] = biological target: T1, EDG-1; experiment: EDG-1 wild-type enhanced SPP-induced migration in Jurkat cells; type: cell-based; settings: Jurkat cells expressing EDG-1 wild-type
Source text: (§3) “Lymphocyte migration” refers to migration of B and T lymphocytes to and from primary and secondary lymphoid organs (e.g., bone marrow, thymus, lymph nodes, spleen, Peyer's patch, and tonsils), the periphery, and non-lymphoid tissues via the blood stream, lymphatic vessels, and by penetration of capillary walls (see, e.g., Paul, Immunology (3rd ed., 1993) (Chapters 4 and 6)). […] SPP and LPA are present in serum and are produced by a number of cells, including platelets and fibroblasts. Ligand-induced lymphocyte migration can be measured using the assay described in FIG. 33A, in which lymphocytes migrate toward the ligand from an upper to a lower chamber.
(§4) As described above, in one embodiment, lymphocyte activation is measured by contacting T cells comprising an EDG target with a potential modulator and activating the cells with an anti-TCR antibody. Modulation of T cell activation is identified by screening for cell surface marker expression, e.g., CD69 expression levels, using fluorescent antibodies and FACS sorting. In another embodiment, lymphocyte migration is measured by observing T cell migration from an upper to a lower chamber containing an EDG ligand such as SPP.

EDG-1 [6] = biological target: T1, EDG-1; experiment: EDG-1 wild-type induced CD69 inhibition in Jurkat cells; type: cell-based; settings: Jurkat cells expressing EDG-1 wild-type
Description: Stimulation: For CD69 upregulation experiments, tTA-Jurkat cells were split to 2.5×10^5 cells/ml 24 hours prior to stimulation. Cells were spun and resuspended at 5×10^5 cells/ml in fresh complete RPMI medium in the presence of 100 ng/ml [MUT] (anti-Jurkat clonotypic TCR) or 5 ng/ml PMA hybridoma supernatant for 20-26 hours at 37° C., and then assayed for surface CD69 expression. Cell surface marker analysis: Jurkat-N cells were stained with an APC-conjugated mouse monoclonal anti-human CD69 antibody (Caltag) at 4° C. for 20 minutes and analyzed using a Facscalibur instrument (Becton Dickinson) with Cellquest software. Cell sorts were performed on a MoFlo (Cytomation).

EDG-1 [7] = biological target: T1, EDG-1; experiment: EDG-1 mediated SPP-induced lymphocyte migration; type: cell-based; settings: lymphocytes migrating toward ligand from upper to lower chamber
Source text: as §3, §4

| effect on wild-type EDG-1 inhibition of anti-BCR induced CD69 upregulation (EDG-1 [1]; BJAB cells expressing wild-type EDG-1) | effect on EDG-1 wild-type enhanced SPP-induced migration (EDG-1 [5]) | effect on EDG-1 wild-type induced CD69 inhibition (EDG-1 [6]) | effect on EDG-1 mediated SPP-induced (ligand-induced) lymphocyte migration (EDG-1 [7]; listed as 2-amino-2(2-[4-octylphenyl]ethyl)-1,3-propanediol hydrochloride) | effect on EDG-1 mediated SPP-induced (ligand-induced) lymphocyte migration (EDG-1 [7]; hydrochloride) | Compound | effect on anti-BCR-induced CD69 upregulation (BJAB cells; in the presence of CS-FBS) | effect on anti-BCR-induced CD69 upregulation (BJAB cells; regular serum) | dose dependence of wild-type EDG-1 inhibition of anti-BCR induced CD69 upregulation (EDG-1 [1]; cells overexpressing wild-type EDG-1, SPP added) | effect on anti-BCR induced CD69 upregulation (EDG-1 [2]; BJAB cells expressing TIG vector) | effect on the inhibition of EDG-1 mediated anti-BCR induced CD69 upregulation (EDG-1 [2]; BJAB cells, FIGS. 29 and 30) | migration of Jurkat cells (Jurkat cells [3]; Jurkat cells migrating toward ligand) | effect on anti-TCR-induced CD69 upregulation (Jurkat cells [4]; in the presence of CS-FBS) | effect on anti-TCR-induced CD69 upregulation (Jurkat cells [4]; regular serum) | effect on SPP-induced primary T cell migration (primary T cell) | effect on SPP-induced migration (Jurkat cells [3]; Jurkat cells) |
| --- | --- | --- | --- | --- | --- | --- | --- | --- | --- | --- | --- | --- | --- | --- | --- |
| potentiates |  |  |  |  | CCCCCCCCCCCCC/C=C/[C@@H](O)[C@@H](N)COP(=O)(O)O [SPP, sphingosine-1-phosphate] | no effect | no effect | dose-dependent manner; also recorded: dose dependent manner | no effect | no effect | induced migration | no effect | no effect |  |  |
|  | inhibits | no effect | inhibit | blocked | CCCCCCCCc1ccc(CCC(N)(CO)CO)cc1.Cl [FTY720, 2-amino-2(2-[4-octylphenyl]ethyl)-1,3-propanediol hydrochloride] |  |  |  |  |  |  |  |  | inhibits | no effect |
